Measurements published in patent US9302999B2, “Substituted triazoles as herbicides” (E. I. DU PONT DE NEMOURS AND COMPANY, priority 2012, dated 2016).
Where two headings read alike, the source gives them in different places.

Legend:
Type in all cases: in vivo
[1] = system: barnyardgrass (Echinochloa crus-galli); test: Test C flooded paddy test: barnyardgrass; details: scale 0 to 100 (0 no effect, 100 complete control); for pest or weed control at 62 g/ha / pest or weed control at 250 g/ha / pest or weed control at 125 g/ha: Echinochloa crus-galli, read-out: Plant response rating, Barnyardgrass
In short: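 2-leaf stage plants; pots flooded 3 cm above soil; compound applied into paddy water, depth maintained. Greenhouse 13–15 d. Visual rating vs controls, 0–100 (0 = no effect, 100 = complete control); dash = no result.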

[2] = system: Russian thistle (Salsola kali); test: Test C pre-/postemergence: Russian thistle; details: Preemergence
Description: Seeds of plant species selected from blackgrass (Alopecurus myosuroides), bromegrass, downy (downy bromegrass, Bromus tectorum), foxtail, green (green foxtail, Setaria viridis), ryegrass, Italian (Italian ryegrass, Lolium multiflorum), winter wheat (Triticum aestivum), wild oat (Avena fatua), galium (catchweed bedstraw, Galium aparine), bermudagrass (Cynodon dactylon), surinam grass (Brachiaria decumbens), cocklebur (common cocklebur, Xanthium strumarium), corn (Zea mays), large crabgrass (Digitaria sanguinalis), woolly cupgrass (Eriochloa villosa), foxtail, giant (giant foxtail, Setaria faberii), goosegrass (Eleusine indica), johnsongrass (Sorghum halepense), kochia (Kochia scoparia), lambsquarters (Chenopodium album), morningglory (Ipomoea coccinea), nightshade (eastern black nightshade, Solanum ptycanthum), nutsedge, yellow (yellow nutsedge, Cyperus esculentus), pigweed (Amaranthus retroflexus), ragweed (common ragweed, Ambrosia elation), soybean (Glycine max), common (oilseed) sunflower (Helianthus annuus), Russian thistle (Salsola kali) and velvetleaf (Abutilon theophrasti) were planted into a blend of loam soil and sand and treated preemergence with test chemicals formulated in a non-phytotoxic solvent mixture which included a surfactant.
At the same time, plants selected from these crop and weed species and also barley (winter barley, Hordeum vulgare), canarygrass (Phalaris minor), chickweed (common chickweed, Stellaria media) windgrass (Apera spica-venti) and deadnettle (henbit deadnettle, Lamium amplexicaule) were planted in pots containing Redi-Earth® planting medium (Scotts Company, 14111 Scottslawn Road, Marysville, Ohio 43041) comprising spaghnum peat moss, vermiculite, wetting agent and starter nutrients and treated with postemergence applications of test chemicals formulated in the same manner. Plants ranged in height from 2 to 18 cm (1- to 4-leaf stage) for postemergence treatments.
(§1) Treated plants and controls were maintained in a greenhouse for 13 to 15 days, after which time all species were compared to controls and visually evaluated. Plant response ratings, summarized in Table C, are based on a scale of 0 to 100 where 0 is no effect and 100 is complete control. A dash (-) response means no test result.

[3] = system: wheat, spring (spring wheat, Triticum aestivum); test: Test D pre-/postemergence: wheat, spring
Description: Seeds of plant species selected from bluegrass (annual bluegrass, Poa annua), blackgrass (Alopecurus myosuroides), canarygrass (Phalaris minor), chickweed (common chickweed, Stellaria media), galium (catchweed bedstraw, Galium aparine), bromegrass, downy (downy bromegrass, Bromus tectorum), field poppy (Papaver rhoeas), field violet (Viola arvensis), foxtail, green (green foxtail, Setaria viridis), deadnettle (henbit deadnettle, Lamium amplexicaule), ryegrass, Italian (Italian ryegrass, Lolium multiflorum), kochia (Kochia scoparia), lambsquarters (Chenopodium album), oilseed rape (Brassica napus), pigweed (Amaranthus retroflexus), Russian thistle (Salsola iberica), chamomile (scentless chamomile, Matricaria inodora), speedwell (bird's-eye speedwell, Veronica persica), barley, spring (spring barley, Hordeum vulgare), wheat, spring (spring wheat, Triticum aestivum), buckwheat, wild (wild buckwheat, Polygonum convolvulus), mustard, wild (wild mustard, Sinapis arvensis), oat, wild (wild oat, Avena fatua), radish, wild (wild radish, Raphanus raphanistrum), windgrass (Apera spica-venti), barley, winter (winter barley, Hordeum vulgare), and wheat, winter (winter wheat, Triticum aestivum) were planted into a silt loam soil and treated preemergence with test chemicals formulated in a non-phytotoxic solvent mixture which included a surfactant. At the same time, these same crop and weed species were planted in pots containing the planting medium comprising spaghnum peat moss, vermiculite, wetting agent and starter nutrients and treated with postemergence applications of the test chemicals formulated in the same manner. Plants ranged in height from 2 to 18 cm (1- to 4-leaf stage).
as §1, with “controlled growth environment” for “greenhouse”, “14” for “13”, “21 days” for “15 days,”, “D,” for “C,”

[4] = Flood (flooded paddy test), 62 g ai/ha, visual rating after 13 to 15 days
[5] = Flood (flooded paddy test), 250 g ai/ha, visual rating after 13 to 15 days
[6] = 31 g ai/ha, scale of 0 to 100, 0 is no effect, 100 is complete control
[7] = 62 g ai/ha, scale of 0 to 100, 0 is no effect, 100 is complete control
[8] = 125 g ai/ha, scale 0 to 100, 0 no effect, 100 complete control
[9] = 250 g ai/ha, scale 0 to 100, 0 no effect, 100 complete control
[10] = Postemergence, 31 g ai/ha, scale 0 to 100 (0 no effect, 100 complete control)
[11] = Postemergence, 62 g ai/ha, scale 0 to 100 (0 no effect, 100 complete control)
[12] = Postemergence, 125 g ai/ha, scale 0 to 100, 0 no effect, 100 complete control
[13] = Postemergence, 250 g ai/ha, scale 0 to 100 (0 no effect, 100 complete control)
[14] = Preemergence, 31 g ai/ha, scale 0 to 100, 0 no effect, 100 complete control
[15] = Preemergence, 62 g ai/ha, scale 0 to 100
[16] = Preemergence, 125 g ai/ha, scale 0 to 100
[17] = Preemergence, 250 g ai/ha, scale 0 to 100
[18] = Postemergence, 16 g ai/ha, scale 0 to 100
[19] = Flood (flooded paddy test), 125 g ai/ha, visual rating after 13 to 15 days

SMILES	pest or weed control at 250 g/ha [1, 5]	Plant response rating, Russian Thistle [2, 6]	Plant response rating, Russian Thistle [2, 7]	Plant response rating, Russian Thistle [2, 8]	Plant response rating, Russian Thistle [2, 9]	Plant response rating: Wheat, Spring [3, 10]	Plant response rating: Wheat, Spring [3, 11]	Plant response rating: Wheat, Spring [3, 12]	Plant response rating: Wheat, Spring [3, 13]	Plant response rating, Wheat, Spring [3, 14]	Plant response rating, Wheat, Spring [3, 15]	Plant response rating, Wheat, Spring [3, 16]	Plant response rating, Wheat, Spring [3, 18]	further results
Cc1nn(-c2ccc(C(F)(F)F)cc2)nc1Oc1csc(C(F)(F)F)c1 [Compound 1, 4-methyl-2-[4-(trifluoromethyl)phenyl]-5-[[5-(trifluoromethyl)-3-thienyl]oxy]-2H-1,2,3-triazole]	0%													pest or weed control at 62 g/ha [1, 4]: 0%
FC(F)(F)COc1nn(-c2ccc(C(F)(F)F)cc2)nc1Cc1ccnc(C(F)(F)F)c1 [Compound 14, 4-[[5-(2,2,2-trifluoroethoxy)-2-[4-(trifluoromethyl)phenyl]-2H-1,2,3-triazol-4-yl]methyl]-2-(trifluoromethyl)pyridine]	70%	10	90	95	95	15	20	35	40	0	0	5		pest or weed control at 62 g/ha [1, 4]: 50%; Plant response rating, Wheat, Spring [3, 17]: 15
COc1nn(-c2ccc(C(F)(F)F)cc2)nc1Cc1ccnc(C(F)(F)F)c1 [Compound 15, 4-[[5-methoxy-2-[4-(trifluoromethyl)phenyl]-2H-1,2,3-triazol-4-yl]methyl]-2-(trifluoromethyl)pyridine]	75%	50	95	100		25	30	40	50	0	0	0	20	pest or weed control at 62 g/ha [1, 4]: 65%; Plant response rating, Russian Thistle ([2]; 16 g ai/ha, scale 0 (no effect) to 100 (complete control)): 5; Plant response rating, Wheat, Spring [3, 17]: 5
Cc1nn(-c2ccc(C(F)(F)F)cn2)nc1Oc1ccnc(C(F)(F)F)c1 [Compound 23]						5	10	10	15				0	Plant response rating, Barnyardgrass [1, 4]: 0; Plant response rating, Barnyardgrass [1, 19]: 20; Plant response rating, Barnyardgrass [1, 5]: 25; Plant response rating, Barnyardgrass ([1]; Flood, 31 g ai/ha): 0
Fc1ccc(-n2nc(Cc3ccnc(C(F)(F)F)c3)c(OC(F)F)n2)cc1 [Compound 25]		0		90	90									
FC(F)Oc1nn(-c2ccc(C(F)(F)F)cc2)nc1Cc1ccnc(C(F)(F)F)c1 [Compound 26]			80	95	95									
Cc1nn(-c2ccc(C(F)(F)F)cn2)nc1Cc1cccc(C(F)(F)F)c1 [Compound 106]		0	5	30	100	5	5	10	20	0	0	0	0	Plant response rating, Barnyardgrass [1, 19]: 20; Plant response rating, Barnyardgrass [1, 5]: 40; Plant response rating, Barnyardgrass ([1]; Flood, 31 g ai/ha): 0; Plant response rating, Barnyardgrass ([1]; Flood, 62 g ai/ha): 0; Plant response rating, Wheat, Spring [3, 17]: 0
COCc1nn(-c2ccc(C(F)(F)F)cc2)nc1Oc1cccc(OC(F)(F)F)c1 [Compound 115, 4-(methoxymethyl)-5-[3-(trifluoromethoxy)phenoxy]-2-[4-(trifluoromethyl)phenyl]-2H-1,2,3-triazole]	60%													pest or weed control at 125 g/ha [1, 19]: 45%; pest or weed control at 62 g/ha ([1]; Flood, 62 g ai/ha): 40%
FCc1nn(-c2ccc(C(F)(F)F)cc2)nc1Oc1cccc(OC(F)(F)F)c1 [Compound 116, 4-(fluoromethyl)-5-[3-(trifluoromethoxy)phenoxy]-2-[4-(trifluoromethyl)phenyl]-2H-1,2,3-triazole]	60%													pest or weed control at 125 g/ha [1, 19]: 40%; pest or weed control at 62 g/ha ([1]; Flood, 62 g ai/ha): 35%
COc1nn(-c2ccc(C(F)(F)F)cc2)nc1Cc1ccnc(C(F)F)c1 [Compound 138]		85	90	90	100	5	10	25	35				5	
Cc1nn(-c2ccc(F)c(C(F)(F)F)c2)nc1Cc1ccnc(C(F)(F)F)c1 [Compound 156]						15	20	25		0	0	5	10	Plant response rating, Wheat, Spring ([3]; Preemergence, 16 g ai/ha, scale 0 to 100, 0 no effect, 100 complete control): 0
